Measured values from patent US4939133A, “N-substituted-2-hydroxy-α-oxo-benzeneacetamides and pharmaceutical compositions having activity as modulators of the arachidonic acid cascade” (Warner-Lambert Company, priority 1985, dated 1990).

Molecular target: Human Leukocyte Lipoxygenase
Test: Human Leukocyte Lipoxygenase Assay (LDA-H / LDAH)
Format: biochemical
Conditions: 50% reduction of reaction rate vs control, E -number means X 10^-no.
Procedure: Human Leukocyte Lipoxygenase Assay (LDA-H)
Whole blood is collected from normal volunteers and spun in a refrigerated centrifuge for four minutes at 1°-6° C. at 3800 g. The buffy coat is manually separated and washed twice with chilled 0.83% NH4 Cl and centrifuged at 1000 RPM for ten minutes at 4° C. The white cell is suspended in culture media-EMEM supplemented with 6% Agamma human serum, tricine buffer, and neomycin and recentrifuged at 1000 g to yield a pellet containing the leukocytes used for the preparation of the acetone pentane powder.
The acetone-pentane powder is prepared utilizing a modification of the procedure reported for human platelet lipoxygenase. See Siegel, et al, Arachidonate Metabolism via Lipoxygenase and 12-L-hydroperoxy-5-Eicostetraenoic acid Peroxidase Sensitive to Antiinflammatory Drugs, Proc. Natl. Acad. Sci., USA 77:308, 1980 and D. P. Wallach and V. R. Brown, a novel Preparation of Human Platlet Lipoxygenase, Biochem. Biophys. Acta. 663:361, 1981. Buffy coat prepared above is resuspended in 5-7 volumes of cold 0.1M Tris buffer, pH 7.4 containing 0.154M NaCl. The suspension is centrifuged at 13,300 g for ten minutes at 4° C. The resultant pellet was retained, resuspended in five volumes of cold acetone, recentrifuged at 13,300 g and resuspended in five volumes of cold pentane. The pentane suspension is centrifuged for ten minutes at 13,300 g to give a pellet which is dried in the cold under vacuum with periodic pulverization. The dry powder is stable for several weeks when stored at -88° C.
Enzyme stock solution is prepared in the following manner. About 15 mg of the acetone-pentane powder sis suspended in 4 ml of cold tris buffer (0.1M, pH 7.4), allowed to stand for five minutes, and homogenized thorougly. The homogenate is sonicated three times for 15 seconds each time, diluted to 7 ml with cold tris buffer (0.1M, pH 7.4), and centrifuged at 4° C. for 60 minutes at 13,300 g. The supernatent is retained and diluted to a total of 10 ml with cold tris buffer (0.1M, pH 7.4) to give the stck enzyme solution. Additional dilutions of 2-50 fold are done as necessary to locate optimal enzyme reaction rate in the assay described below.
Substrate solution is prepared at 100 μM or 1.0 μM concentrations of arachidonic acid or linoleic acid in 0.1M tris buffer, pH 9.0 containing 20% ethanol.
The enzyme reaction is followed spectrophotometrically by the appearance of a conjugated diene product at 234 nm. The reaction is monitored at 24° C. using a Gilford Model 2600 spectrophotometer. […] The effects of inhibitors on the reaction are compared with control reactions run under indentical conditions. Routinely, each compounds of the present invention is incubated with the enzyme for five minutes prior to addition of substrate to initiate the reaction. Inhibition expressed as IC50 as molar concentration of the compound required to reduce reaction rate to 50% control.

Structure (SMILES): COc1ccc(CCc2ccc(NC(=O)c3ccc(C)cc3O)cc2)cc1OC [Example 46, N-[4-[2-(3,4-Dimethoxyphenyl)ethyl]phenyl]-2-hydroxy-4-methylbenzamide]
- IC50: 14 µM
